Data as given in patent US20230277553A1, “THERAPEUTIC COMPOSITION OF CURE-PRO COMPOUNDS FOR TARGETED DEGRADATION OF BET DOMAIN PROTEINS, AND METHODS OF MAKING AND USAGE” (CORNELL UNIVERSITY, priority 2020, published 2023).
“Also recorded” adds a separate entry of the source.

Key:
Assay type in all cases: cell-based
[1] = target: T1, BRD4 (Homo sapiens, UniProt O60885); experiment: CURE-PRO-mediated BRD4 degradation with VHL ligands, Western blot, MCF7 cells; set-up: endogenous in cells; details: MCF7, 24 h, 1:1 with 8305, 100 nM-10 μM
Method: (§1) All cell lines were purchased from ATCC or DSMZ and grown at 37° C. with 5% CO2. Human HeLa cells were cultured in complete growth medium (Dulbecco's modified Eagle's medium (DMEM) supplemented with 10% FBS); MCF7 cells were cultured in complete growth medium (Dulbecco's modified Eagle's medium (DMEM) supplemented with 10% FBS and 0.01 mg/ml human recombinant insulin (Sigma Aldrich); Namalwa and MOLM-13 cells were cultured in complete growth medium (RPMI 1640 medium supplemented with 10% FBS); MV-4-11 were cultured in complete growth medium (Iscove's Modified Dulbecco's medium, supplemented with 10% FBS); HCT116 cells were cultured in complete growth medium (McCoy's 5a Medium supplemented with 10% FBS). For cellular degradation of BRD4 studies, cells were seeded in a 12-well plate at 70-80% confluency, allowed to attach overnight, and incubated with the indicated compounds for the indicated time. When indicated, a 15-minute pretreatment with 10 μM pomalidomide, 10 μM VHL298, 10 μM Nutlin3a, 1 μM MG-132 or 1 μM Carfilzomib was performed before the addition of CURE-PROs. For washout studies, after CURE-PRO treatment, media was aspirated and incubated with complete medium for the indicated time before lysis.
HeLa, MCF7, or HCT116 cells (2.5-3×10^6) were treated for 24 hours with the indicated compounds solubilized in DMSO. The cells were washed in ice-cold PBS and were then lysed in RIPA lysis buffer (150 mM NaCl, 5 mM EDTA, 1% NP-40, 0.5% sodium deoxycholate, 0.1% SDS, 50 mM Tris, pH 8.0.) with Roche protease inhibitor complete cocktail and phosphatase inhibitors (10 mM sodium fluoride, 10 mM sodium pyrophosphate, 1 mM sodium orthovanadate and 20 mM β-glycerophosphate). The total protein concentrations were determined by Bradford Protein Assay and 10-20 μg of protein was loaded onto 4-15% Tris-Glycine gradient gels (Biorad). After standard gel electrophoresis, the separated proteins were transferred to PVDF membrane by wet transfer. The immunoblots were then blocked for 1 hour in 5% skim milk in TBST or 5% BSA in TBST, according to manufacturer's instructions, before an overnight incubation at 4° C. with indicated antibodies and membranes. Membranes were then incubated with the appropriate horseradish peroxidase-conjugated secondary antibodies (1:5,000 dilution) for 1 h at room temperature and the bands were visualized using the Clarity Max Western ECL Substrate (Biorad) and the ChemiDoc Imaging System (Biorad). Signal was detected with ECL Western Blotting Substrate (Pierce) and X-ray film processed with a Konica SRX-101 X-ray film processor or captured by Bio-Rad's Chemidoc Imaging system.
MCF7 cells (3×10^6) were treated for 24 h with the compounds solubilized in DMSO. Compounds were added at 100 nM-10 μM. […]

[2] = test system: caspase 3/7; experiment: Caspase-Glo 3/7 assay, Namalwa cells; details: 24 hours, 1:1 with 8047
Method: Caspase-glo® assay (Promega) was conducted following the manufacturer's recommendations. Cells were seeded at a density of 5000 cells/well in a white 96 well plates (Corning, #3917) in a total volume of 100 μl with respective monomers, combinations of BRD ligands together with E3 ligase ligands or vehicle control treatment. After a 24 h incubation, 100 μl of the […] substrate was added per well and luminescence was read on a Spectramax M5 (Molecular Devices).
Namalwa cells (5×104) were treated for 24 hours with the compounds solubilized in DMSO. FIG. 57 is a bar graph depiction of fold increase of apoptosis assessed via caspase 3/7 activity using the Caspase-glo assay (Promega) described above.
Molm-13 (FIG. 76A) or Namalwa (FIG. 76B) cells (5×10^4) were treated for 24 hours with the compounds solubilized in DMSO in white 96 well plates (10 nM-10 μM solubilized in DMSO). FIG. 76 is a bar graph depiction of fold increase of apoptosis assessed via caspase 3/7 activity using the Caspase-glo assay (Promega) described above.

[3] = target: T1, BRD4; experiment: Summary of BRD4 degradation by CURE-PRO pairs, estimated from Western Blot or WES (Proteinsimple); set-up: endogenous in cells; details: Table 1, CRBN ligand
Text: A black check mark indicates efficacy of 30% to 70% or higher protein degradation.

[4] = target: T1, BRD4; experiment: CURE-PRO-mediated BRD4 degradation, Western blot, HeLa cells; set-up: endogenous in cells; host or cells: HeLa; details: 24 h
Summary of the method: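 HeLa cells treated 24 h with compounds in DMSO (1-10 μM, 10 μM or 100 μM each; paired monomers combined 1:1), optional 15-min pretreatment with pomalidomide, VHL298, Nutlin3a (10 μM) or MG-132/carfilzomib (1 μM). RIPA lysates, 10-20 μg protein immunoblotted for BRD4 with β-actin, ECL detection.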

[5] = target: T1, BRD4; experiment: CURE-PRO-mediated BRD4 degradation, WES (ProteinSimple), HeLa cells; set-up: endogenous in cells; host or cells: HeLa
Method: as §1
Anti-BRD4 (13440, 1:1,000 dilution for Western Blot and 1:25 dilution for ProteinSimple); Anti-BRD2 (5848 1:1,000 dilution for Western Blot and 1:25 dilution for ProteinSimple); β-Actin (3700, 1:2,000 dilution for Western Blot), β-Actin (4970, 1:50 dilution for ProteinSimple) anti-mouse IgG-HRP, and anti-rabbit IgG-HRP antibodies were purchased Cell Signaling Technology. Anti-GAPDH (600-401-A33, 1:100 dilution for ProteinSimple) was purchased from Rockland Immunochemicals, Inc. Anti-BRD3 (sc-81202, 1:200 dilution for Western Blot) was purchased from Santa Cruz Biotechnology.
WES Simple analysis was performed on WES system (ProteinSimple-Biotechne) according to the manufacturer's instructions. Total protein concentrations of cell lysates were determined by the Pierce BCA kit (Thermo Fisher). 3 μL of 0.3 μg/μL of the protein lysate was loaded onto a 12- to 230-kDa WES assay plate (ProteinSimple) where 300 nL sample was withdrawn through a capillary, subjected to electrophoretic separation of proteins by size, and followed by the simultaneous, HRP-based detection of proteins using the Anti-Rabbit Detection Module (Proteinsimple: #DM-001). The electropherograms were checked then the automatic peak detection was manually corrected if it was required.
HeLa cells (2.5×10^6) were treated for 4-24 hours with the compounds solubilized in DMSO. After 4 hours, indicated points were washed and cells were left in full growth media. Compounds were added at 10 μM each. […]

COc1ccc2c(c1)C(c1ccc(Cl)cc1)=N[C@@H](CC(=O)NCc1ccc(B(O)O)cc1)c1nnc(C)n1-2 [BRD-E9, (4-((2-((4S)-6-(4-chlorophenyl)-8-methoxy-1-methyl-4H-benzo[f][1,2,4]triazolo[4,3-a][1,4]diazepin-4-yl)acetamido)methyl)phenyl)boronic acid]
BRD4 degradation, with VHL ligand 8305 (Western blot) [1]: there is degradation of BRD4

CCNC(=O)C[C@@H]1N=C(c2ccc(Sc3cccc(B(O)O)c3)cc2)c2cc(OC)ccc2-n2c(C)nnc21 [BRD-E52, (3-((4-((4S)-4-(2-(ethylamino)-2-oxoethyl)-8-methoxy-1-methyl-4H-benzo[f][1,2,4]triazolo[4,3-a][1,4]diazepin-6-yl)phenyl)thio)phenyl)boronic acid]
Caspase 3/7 activation, co-dosed with CRBN ligand 8047 [2]: demonstrates activation of caspase 3/7; also recorded: marked caspase activation | Degradation of BRD4 in combination with CRBN ligand [drawing 371] ([3]; second drawing (8047)): ✓ (A black check mark indicates efficacy of 30% to 70% or higher protein degradation) | Degradation of BRD4 in combination with CRBN ligand [drawing 372] ([3]; third drawing (8066)): ✓ (A black check mark indicates efficacy of 30% to 70% or higher protein degradation) | BRD4 degradation, BRD ligand with pomalidomide (no 8047) ([4]; 10 μM): failed to induce BRD4 degradation | BRD4 degradation, co-treatment with CRBN ligand 8047 ([4]; 1:1 with 8047, 10 μM each, Western blot): causes degradation of BRD4 | BRD4 degradation, co-dosing with CRBN ligand 8047 (WES) ([5]; 10 μM each, 4-24 h with washout after 4 h, or 100 nM-10 μM): marked BRD4 degradation after 4h with sustained degradation for up to 8h after drugs are washed out | Concentration from which BRD4 protein expression decreases, with 8047 (WES) ([5]; 24 h, tested 100 nM-10 μM each): ≥ 300 nM

CCNC(=O)C[C@@H]1N=C(c2ccc(Sc3ccccc3)cc2)c2cc(OC)ccc2-n2c(C)nnc21 [BRD-E52C, N-ethyl-2-((4S)-8-methoxy-1-methyl-6-(4-(phenylthio)phenyl)-4H-benzo[f][1,2,4]triazolo[4,3-a][1,4]diazepin-4-yl)acetamide]
Concentration at which BRD4 degradation is induced, with 8047 (WES) ([5]; 24 h, tested 100 nM-10 μM each): > 10 µM
